Assay results taken from US9233111B2, “Pyrrolo pyrimidine derivatives” (NOVARTIS AG, priority 2011, dated 2016).

Target: full-length human recombinant BTK (Homo sapiens (Human), UniProt Q06187)
Assay: Inhibition of Btk enzymatic activity (biochemical enzyme assay, Caliper)
Settings: 30° C., 60 minutes
Protocol: The inhibitory activity of the present compounds against Btk was assessed in a biochemical enzyme assay. Assay plates in 384 well format were prepared with 8-point serial dilutions for the test compounds on a Thermo CatX workstation equipped with a Innovadyne Nanodrop Express. The assay plates were prepared by addition of 50 nl per well of compound solution in 90% DMSO. The kinase reactions were started by stepwise addition of 4.5 μl per well of peptide/ATP-solution (4 μM FITC-Ahx-[…]-NH2, 164 μM ATP) in kinase buffer (50 mM HEPES, pH 7.5, 1 mM DTT, 0.02% Tween20, 0.02% BSA, 0.6% DMSO, 10 mM beta-glycerophosphate, and 10 μM sodium orthovanadate, 18 mM MgCl2, 1 mM MnCl2) and 4.5 μl per well of enzyme solution (6.4 nM full-length human recombinant BTK) in kinase buffer. Kinase reactions were incubated at 30° C. for 60 minutes and subsequently terminated by addition of 16 μl per well of stop solution (100 mM HEPES pH 7.5, 5% DMSO, 0.1% Caliper coating reagent, 10 mM EDTA, and 0.015% Brij35). Kinase reactions were analyzed on a Caliper LC3000 workstation by separating phosphorylated and unphosphorylated peptides and kinase activities were calculated from the amounts of newly formed phospho-peptide. Inhibition data were calculated by comparison to control reactions without enzyme (100% inhibition) and without inhibitors (0% inhibition). The concentration of inhibitor required for 50% inhibition (IC50) was calculated from the inhibition in response to inhibitor concentrations.

Sequence of full-length human recombinant BTK (Q06187 whole entry): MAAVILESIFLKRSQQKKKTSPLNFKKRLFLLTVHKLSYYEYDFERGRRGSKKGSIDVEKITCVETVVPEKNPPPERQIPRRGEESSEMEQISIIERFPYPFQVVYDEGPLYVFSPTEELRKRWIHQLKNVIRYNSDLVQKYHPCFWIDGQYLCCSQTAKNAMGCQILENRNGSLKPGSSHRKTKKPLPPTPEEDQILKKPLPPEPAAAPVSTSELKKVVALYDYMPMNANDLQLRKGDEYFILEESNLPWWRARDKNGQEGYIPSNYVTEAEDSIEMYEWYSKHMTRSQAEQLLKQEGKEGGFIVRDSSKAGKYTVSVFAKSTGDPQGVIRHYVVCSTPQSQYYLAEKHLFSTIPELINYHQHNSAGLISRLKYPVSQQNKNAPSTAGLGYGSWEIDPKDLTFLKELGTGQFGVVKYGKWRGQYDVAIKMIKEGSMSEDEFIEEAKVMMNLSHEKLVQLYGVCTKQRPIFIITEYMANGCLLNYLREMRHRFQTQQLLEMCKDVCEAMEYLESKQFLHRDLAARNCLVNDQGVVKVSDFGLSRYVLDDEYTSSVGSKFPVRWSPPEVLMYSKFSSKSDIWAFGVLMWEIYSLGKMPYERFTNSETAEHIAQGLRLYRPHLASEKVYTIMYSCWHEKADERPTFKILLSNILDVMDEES

CC(=O)OCC(=O)N1CC=C(c2cc3c(-c4cc(F)cc(NC(=O)c5ccc(S(F)(F)(F)(F)F)cc5)c4C)ncnc3[nH]2)CC1 [Example 35, Acetic acid 2-[4-(4-{5-fluoro-2-methyl-3-[4-(pentafluoro-sulfanyl)-benzoylamino]-phenyl}-7H-pyrrolo[2,3-d]pyrimidin-6-yl)-3,6-dihydro-2H-pyridin-1-yl]-2-oxo-ethyl ester]
IC50: 14 nM

Cc1c(NC(=O)c2ccc(S(F)(F)(F)(F)F)cc2)cc(F)cc1-c1ncnc2[nH]c(C3=CCN(C(=O)CO)CC3)cc12 [Example 36, N-(5-Fluoro-3-{6-[1-(2-hydroxy-acetyl)-1,2,3,6-tetrahydro-pyridin-4-yl]-7H-pyrrolo[2,3-d]pyrimidin-4-yl}-2-methyl-phenyl)-4-(pentafluoro-sulfanyl)-benzamide]
IC50: 4 nM

CN(C)C(=O)N1CC=C(c2cc3c(-c4cccc(NC(=O)c5ccc(C(C)(C)C)cc5)c4CO)ncnc3[nH]2)CC1 [Example 37, 4-{4-[3-(4-tert-Butyl-benzoylamino)-2-hydroxymethyl-phenyl]-7H-pyrrolo[2,3-d]pyrimidin-6-yl}-3,6-dihydro-2H-pyridine-1-carboxylic acid dimethylamide]
IC50: 26 nM

Cc1c(NC(=O)c2ccc(C(C)(C)C)cc2)cc(F)cc1-c1ncnc2[nH]c(C3=CCNCC3)cc12 [Example 40, 4-tert-Butyl-N-{5-fluoro-2-methyl-3-[6-(1,2,3,6-tetrahydro-pyridin-4-yl)-7H-pyrrolo[2,3-d]pyrimidin-4-yl]-phenyl}-benzamide]
IC50: 19 nM

Cc1c(NC(=O)c2ccc(C(C)(C)C)cc2)cc(F)cc1-c1ncnc2[nH]c(C3=CCN(C(=O)N(C)C)CC3)cc12 [Example 41, 4-{4-[3-(4-tert-Butyl-benzoylamino)-5-fluoro-2-methyl-phenyl]-7H-pyrrolo[2,3-d]pyrimidin-6-yl}-3,6-dihydro-2H-pyridine-1-carboxylic acid dimethylamide]
IC50: 23 nM

Cc1c(NC(=O)c2ccc(C(C)(C)C)cc2)cc(F)cc1-c1ncnc2[nH]c(C3=CCN(S(C)(=O)=O)CC3)cc12 [Example 42, 4-tert-Butyl-N-{5-fluoro-3-[6-(1-methanesulfonyl-1,2,3,6-tetrahydro-pyridin-4-yl)-7H-pyrrolo[2,3-d]pyrimidin-4-yl]-2-methyl-phenyl}-benzamide]
IC50: 30 nM

Cc1c(NC(=O)c2ccc(C(C)(C)C)cc2)cc(F)cc1-c1ncnc2[nH]c(C3=CCN(S(=O)(=O)N(C)C)CC3)cc12 [Example 43, 4-tert-Butyl-N-{3-[6 (1 dimethylsulfamoyl-1,2,3,6-tetrahydro-pyridin-4-yl)-7H-pyrrolo[2,3-d]pyrimidin-4-yl]-5-fluoro-2-methyl-phenyl}-benzamide]
IC50: 140 nM

Cc1c(NC(=O)c2ccc(C(C)(C)C)cc2)cccc1-c1ncnc2[nH]c(C3=CCN(S(C)(=O)=O)CC3)cc12 [Example 44, 4-tert-Butyl-N-{3-[6-(1 methanesulfonyl-1,2,3,6-tetrahydro-pyridin-4-yl)-7H-pyrrolo[2,3-d]pyrimidin-4-yl]-2-methyl-phenyl}-benzamide]
IC50: 17 nM

CN(C)C(=O)N1CC=C(c2cc3c(-c4cccc(N5CCc6cc(C(C)(C)C)ccc6C5=O)c4CO)ncnc3[nH]2)CC1 [Example 45, 4-{4-[3-(6-tert-Butyl-1-oxo-3,4-dihydro-1H-isoquinolin-2-yl)-2-hydroxymethyl-phenyl]-7H-pyrrolo[2,3-d]pyrimidin-6-yl}-3,6-dihydro-2H-pyridine-1-carboxylic acid dimethylamide]
IC50: 8 nM

CN(C)C(=O)N1CC=C(c2cc3c(-c4cccc(N5CCc6cc(C7CC7)ccc6C5=O)c4CO)ncnc3[nH]2)CC1 [Example 46, 4-{4-[3-(6-Cyclopropyl-1-oxo-3,4-dihydro-1H-isoquinolin-2-yl)-2-hydroxymethyl-phenyl]-7H-pyrrolo[2,3-d]pyrimidin-6-yl}-3,6-dihydro-2H-pyridine-1-carboxylic acid dimethylamide]
IC50: 17 nM

CN(C)C(=O)N1CC=C(c2cc3c(-c4cccc(N5CCc6cc(C(C)(C)O)ccc6C5=O)c4CO)ncnc3[nH]2)CC1 [Example 47, 4-(4-{2-Hydroxymethyl-3-[6-(1-hydroxy-1-methyl-ethyl)-1-oxo-3,4-dihydro-1H-isoquinolin-2-yl]-phenyl}-7H-pyrrolo[2,3-d]pyrimidin-6-yl)-3,6-dihydro-2H-pyridine-1-carboxylic acid dimethylamide]
IC50: 2 nM

CC(C)(C)c1ccc(C(=O)Nc2cccc(-c3ncnc4[nH]c(C5=CCOCC5)cc34)c2CO)cc1 [Example 48, 4-tert-Butyl-N-{3-[6-(3,6-dihydro-2H-pyran-4-yl)-7H-pyrrolo[2,3-d]pyrimidin-4-yl]-2-hydroxymethyl-phenyl}-benzamide]
IC50: 7 nM

Cc1c(NC(=O)c2ccc(C(C)(C)C)cc2)cc(F)cc1-c1ncnc2[nH]c(C3=CCOCC3)cc12 [Example 49, 4-tert-Butyl-N-{3-[6-(3,6-dihydro-2H-pyran-4-yl)-7H-pyrrolo[2,3-d]pyrimidin-4-yl]-5-fluoro-2-methyl-phenyl}-benzamide]
IC50: 99 nM

Cc1c(NC(=O)c2ccc(N(C)C)cc2)cc(F)cc1-c1ncnc2[nH]c(C3=CCOCC3)cc12 [Example 50, N-{3-[6-(3,6-Dihydro-2H-pyran-4-yl)-7H-pyrrolo[2,3-d]pyrimidin-4-yl]-5-fluoro-2-methyl-phenyl}-4-dimethylamino-benzamide]
IC50: 47 nM

Cc1c(NC(=O)c2ccc(C(C)(C)C)cc2)cccc1-c1ncnc2[nH]c(C3=CCSCC3)cc12 [Example 51, 4-tert-Butyl-N-{3-[6-(3,6-dihydro-2H-thiopyran-4-yl)-7H-pyrrolo[2,3-d]pyrimidin-4-yl]-2-methyl-phenyl}-benzamide]
IC50: 47 nM

Cc1c(NC(=O)c2ccc(C(C)(C)C)cc2)cccc1-c1ncnc2[nH]c(C3=CC[S+]([O-])CC3)cc12 (centres unmarked) [Example 52, 4-tert-Butyl-N-{2-methyl-3-[6-(3,6-dihydro-1-oxido-2H-thiopyran-4-yl)-7H-pyrrolo[2,3-d]pyrimidin-4-yl]-phenyl}-benzamide]
IC50: 24 nM

Cc1c(NC(=O)c2ccc(C(C)(C)C)cc2)cccc1-c1ncnc2[nH]c(C3=CCS(=O)(=O)CC3)cc12 [Example 53, 4-tert-Butyl-N-{3-[6-(3,6-dihydro-1,1-dioxido-2H-thiopyran-4-yl)-7H-pyrrolo[2,3-d]pyrimidin-4-yl]-2-methyl-phenyl}-benzamide]
IC50: 64 nM

CC(C)(C)c1ccc(C(=O)Nc2cccc(-c3ncnc4[nH]c(C5=CCC6(CC5)OCCO6)cc34)c2CO)cc1 [Example 54, 4-tert-Butyl-N-{3-[6-(1,4-dioxa-spiro[4.5]dec-7-en-8-yl)-7H-pyrrolo[2,3-d]pyrimidin-4-yl]-2-hydroxymethyl-phenyl}-benzamide]
IC50: 24 nM

CC(C)(C)c1ccc(C(=O)Nc2cccc(-c3ncnc4[nH]c(C5=CCC(O)CC5)cc34)c2CO)cc1 (centres unmarked) [Example 55, 4-tert-Butyl-N-{3-[6 (4 hydroxy-cyclohex-1-enyl)-7H-pyrrolo[2,3-d]pyrimidin-4-yl]-2-hydroxymethyl-phenyl}-benzamide]
IC50: 4 nM

CN(C)C1CC=C(c2cc3c(-c4cccc(NC(=O)c5ccc(C(C)(C)C)cc5)c4CO)ncnc3[nH]2)CC1 (centres unmarked) [Example 56, 4-tert-Butyl-N-{3-[6 (4 dimethylamino-cyclohex-1-enyl)-7H-pyrrolo[2,3-d]pyrimidin-4-yl]-2-hydroxymethyl-phenyl}-benzamide]
IC50: 2 nM
